Source: ChEMBL document CHEMBL1201862, “PubChem BioAssay data set” (2004)
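96-well plates; 48 h exposure; 5 concentrations. Endpoints by linear interpolation between flanking doses. Not reached: highest tested concentration assigned. GI50 is the concentration that inhibits growth by half.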 Calls of active or inactive are those of the source. Rule as the data show it: active = GI50 up to about 1.1 µM and inactive = higher.

Key:
Assay in all cases: NCI-60 cell line screen, 48 h
[1] = test system: M19-MEL
[2] = test system: SNB-78
[3] = test system: LXFL 529
[4] = test system: DMS-273
[5] = test system: XF498
[6] = test system: KM-20L2
[7] = test system: HOP-18
[8] = test system: DMS-114
[9] = test system: RXF 631

Compound	GI50 [1]	GI50 [2]	GI50 [3]	GI50 [4]	GI50 [5]	GI50 [6]	GI50 [7]	GI50 [8]	GI50 [9]
CC1=NN(c2ccccc2)C(=O)C1=C1SCCCS1	32.1 µM (inactive)	66.2 µM (inactive)	34.6 µM (inactive)	32.7 µM (inactive)	16.6 µM (inactive)	31.4 µM (inactive)	20.8 µM (inactive)	20.8 µM (inactive)	–
COc1ccccc1/N=C(\N)N/N=C/c1c[nH]c2ccccc12	11.1 µM (inactive)	6.85 µM (inactive)	2.23 µM (inactive)	–	4.42 µM (inactive)	13.3 µM (inactive)	18.6 µM (inactive)	3.39 µM (inactive)	–
N#C/C(=C/Sc1ccccc1)C(=O)O	23.3 µM (inactive)	18 µM (inactive)	21.2 µM (inactive)	22.2 µM (inactive)	41.8 µM (inactive)	30.1 µM (inactive)	> 100 µM (inactive)	15.1 µM (inactive)	–
OCC1OC(n2cnc3c2NC=NC[C@H]3O)CC1O (stereo partly drawn)	354 µM (inactive)	483 µM (inactive)	> 500 µM (inactive)	489 µM (inactive)	442 µM (inactive)	> 500 µM (inactive)	–	426 µM (inactive)	–
CCOP(=O)(OCC)C1CC(C)OC1=O (stereo not drawn)	> 100 µM (inactive)	> 100 µM (inactive)	> 100 µM (inactive)	> 100 µM (inactive)	> 100 µM (inactive)	> 100 µM (inactive)	–	> 100 µM (inactive)	> 100 µM (inactive)
Nc1ccc(C(=O)NN2C(=O)C(Cl)C2c2cccc([N+](=O)[O-])c2)cc1 (stereo not drawn)	19.8 µM (inactive)	63.2 µM (inactive)	20 µM (inactive)	16 µM (inactive)	13.2 µM (inactive)	25.3 µM (inactive)	–	18.7 µM (inactive)	–
COC(=O)/C(Cl)=C1/CC1COCc1ccccc1 (stereo not drawn)	33.3 µM (inactive)	45.9 µM (inactive)	17.1 µM (inactive)	20.7 µM (inactive)	26.4 µM (inactive)	41.4 µM (inactive)	–	28.8 µM (inactive)	–
Clc1ccc(C2=NN(c3ccccc3)C3c4cc(Br)ccc4OCC23)cc1 (stereo not drawn)	> 100 µM (inactive)	> 100 µM (inactive)	72.1 µM (inactive)	> 100 µM (inactive)	66.2 µM (inactive)	> 100 µM (inactive)	> 100 µM (inactive)	86.1 µM (inactive)	> 100 µM (inactive)
COc1ccc(S(=O)(=O)NC(C)C(=O)O)cc1 (stereo not drawn)	> 100 µM (inactive)	–	> 100 µM (inactive)	> 100 µM (inactive)	21.9 µM (inactive)	> 100 µM (inactive)	> 100 µM (inactive)	–	–
O=C1C(Cl)C(c2ccc([N+](=O)[O-])cc2)N1n1cnc2ccccc2c1=O (stereo not drawn)	–	24.1 µM (inactive)	22.7 µM (inactive)	34.5 µM (inactive)	64.9 µM (inactive)	> 100 µM (inactive)	40.6 µM (inactive)	20.2 µM (inactive)	–
COc1ccc(CC2=NCCc3cc(OC)c(OC)cc32)cc1Br	27.5 µM (inactive)	58.1 µM (inactive)	7.36 µM (inactive)	12.7 µM (inactive)	22.8 µM (inactive)	4.11 µM (inactive)	> 100 µM (inactive)	10.2 µM (inactive)	–
CCCN(CCC)CCc1cc(C(C)=O)n(S(=O)(=O)c2ccc(C)cc2)c1	> 100 µM (inactive)	> 100 µM (inactive)	> 100 µM (inactive)	> 100 µM (inactive)	–	–	> 100 µM (inactive)	> 100 µM (inactive)	–
CCC1(C)NN=c2s/c(=C/c3ccc(OC)cc3)c(=O)n2N1 (stereo not drawn)	–	> 100 µM (inactive)	> 100 µM (inactive)	> 100 µM (inactive)	> 100 µM (inactive)	> 100 µM (inactive)	–	–	–
COc1c(C(C)C)cc2c3c1OC(=O)[C@@]31CCCC(C)(C)C1CC2 (stereo partly drawn)	23.6 µM (inactive)	23.3 µM (inactive)	16.6 µM (inactive)	23.4 µM (inactive)	–	30.4 µM (inactive)	–	–	–
N#CC(N)(C(=O)CCC(=O)Nc1cccc(Cl)c1)c1ccc(Cl)cc1 (stereo not drawn)	> 100 µM (inactive)	> 100 µM (inactive)	> 100 µM (inactive)	> 100 µM (inactive)	> 100 µM (inactive)	> 100 µM (inactive)	> 100 µM (inactive)	> 100 µM (inactive)	–
COc1cccc2c1C(=O)c1c(O)c3c(c(O)c1C2=O)C[C@@](O)(C(=O)CO)C[C@@H]3OC1CC(N2CCOCC2C#N)C(O)C(C)O1 (stereo partly drawn)	–	0.0025 µM (active)	0.001 µM (active)	1.93e-05 µM (active)	–	0.0025 µM (active)	0.0025 µM (active)	–	8.24e-05 µM (active)
O=c1[nH]c2ccc([N+](=O)[O-])cc2nc1/C(=N/Nc1ccccc1)C(O)c1ccco1 (stereo not drawn)	85.9 µM (inactive)	> 100 µM (inactive)	59.8 µM (inactive)	42.4 µM (inactive)	> 100 µM (inactive)	41.1 µM (inactive)	–	18.9 µM (inactive)	–
Cn1c(=O)nc2n(-c3ccc(Cl)c(C(F)(F)F)c3)c3ccccc3nc-2c1=O	13.4 µM (inactive)	53.6 µM (inactive)	76.9 µM (inactive)	32.1 µM (inactive)	37.2 µM (inactive)	25.1 µM (inactive)	> 100 µM (inactive)	16.7 µM (inactive)	–
CCC12CCCC(=O)N1C(CO)C(c1ccccc1)O2 (stereo not drawn)	> 100 µM (inactive)	> 100 µM (inactive)	–	> 100 µM (inactive)	> 100 µM (inactive)	> 100 µM (inactive)	> 100 µM (inactive)	38 µM (inactive)	–
Cc1c2cc[n+]([O-])cc2c(C)c2c1[nH]c1ccccc12	13.6 µM (inactive)	7.71 µM (inactive)	4.65 µM (inactive)	3.82 µM (inactive)	9.98 µM (inactive)	4.06 µM (inactive)	45 µM (inactive)	11.2 µM (inactive)	0.879 µM (active)
O=c1c2cccc3cccc(c4n1CCN=4)c32	> 100 µM (inactive)	> 100 µM (inactive)	> 100 µM (inactive)	97.7 µM (inactive)	> 100 µM (inactive)	> 100 µM (inactive)	> 100 µM (inactive)	> 100 µM (inactive)	–
CC(=O)Nc1ccc(C2CC(c3ccc([N+](=O)[O-])cc3)=Nc3ccccc3[S+]2[O-])cc1 (stereo not drawn)	15.2 µM (inactive)	–	16.7 µM (inactive)	13.6 µM (inactive)	24.2 µM (inactive)	21.6 µM (inactive)	27.2 µM (inactive)	21.2 µM (inactive)	> 10 µM (inactive)
CCCCCCC(=O)OC[n+]1ccc2c(C)c3[nH]c4ccc(OC)cc4c3c(C)c2c1	0.953 µM (active)	1.06 µM (active)	0.133 µM (active)	0.029 µM (active)	–	2.42 µM (inactive)	–	0.522 µM (active)	0.455 µM (active)
CCOc1ccc2c(c1)[n+]([O-])c(-c1ccccc1)c(N)[n+]2[O-]	62.4 µM (inactive)	–	46.6 µM (inactive)	77.1 µM (inactive)	> 100 µM (inactive)	59 µM (inactive)	53.6 µM (inactive)	34.9 µM (inactive)	–
